We go through 25 compounds from US20160002273A1, “THIENO[3,2-D]PYRIMIDINE-6-CARBOXAMIDES AND ANALOGUES AS SIRTUIN MODULATORS” (GLAXOSMITHKLINE LLC, priority 2013, published 2016).

≈ marks a conversion by molar mass, not a printed value. Read-outs that look alike come from different tables or passages of the source.

A short description of data set [1]: HPLC based lipophilicity assay (CHI LogD). In kind it is physicochemical. The settings on record: CHI values by reverse phase HPLC transformed to a LogD scale.
The nature of data set [2]: Kinetic solubility by chemi-luminescent nitrogen detection (CLND). In kind it is physicochemical. The settings on record: aqueous buffer, kinetic from dmso stock, DMSO stock incubated 1 hr in phosphate buffered saline pH 7.4, filtered.
Data set [3] deals with T1, SIRT2 (Homo sapiens, UniProt Q8IXJ6).
T1 sequence (Q8IXJ6 1-389): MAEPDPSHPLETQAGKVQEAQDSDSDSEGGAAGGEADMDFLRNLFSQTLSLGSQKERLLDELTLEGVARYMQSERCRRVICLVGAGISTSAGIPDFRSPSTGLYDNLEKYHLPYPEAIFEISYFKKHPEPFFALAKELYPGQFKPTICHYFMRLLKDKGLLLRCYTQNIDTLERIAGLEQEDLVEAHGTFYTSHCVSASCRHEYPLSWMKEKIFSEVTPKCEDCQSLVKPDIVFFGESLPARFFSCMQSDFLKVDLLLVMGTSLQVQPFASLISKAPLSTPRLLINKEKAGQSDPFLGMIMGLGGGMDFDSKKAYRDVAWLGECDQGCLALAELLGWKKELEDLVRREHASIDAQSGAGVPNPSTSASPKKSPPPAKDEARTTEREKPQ
The data set can be described thus: SIRT2 deacetylation of Trp 5-mer peptide, OAADPr mass spec assay. In kind it is biochemical. On the set-up: His-SIRT2(1-389).

For data set [4], the target named is T2, SIRT1 (Homo sapiens, UniProt Q96EB6).
T2 sequence (Q96EB6 1-747): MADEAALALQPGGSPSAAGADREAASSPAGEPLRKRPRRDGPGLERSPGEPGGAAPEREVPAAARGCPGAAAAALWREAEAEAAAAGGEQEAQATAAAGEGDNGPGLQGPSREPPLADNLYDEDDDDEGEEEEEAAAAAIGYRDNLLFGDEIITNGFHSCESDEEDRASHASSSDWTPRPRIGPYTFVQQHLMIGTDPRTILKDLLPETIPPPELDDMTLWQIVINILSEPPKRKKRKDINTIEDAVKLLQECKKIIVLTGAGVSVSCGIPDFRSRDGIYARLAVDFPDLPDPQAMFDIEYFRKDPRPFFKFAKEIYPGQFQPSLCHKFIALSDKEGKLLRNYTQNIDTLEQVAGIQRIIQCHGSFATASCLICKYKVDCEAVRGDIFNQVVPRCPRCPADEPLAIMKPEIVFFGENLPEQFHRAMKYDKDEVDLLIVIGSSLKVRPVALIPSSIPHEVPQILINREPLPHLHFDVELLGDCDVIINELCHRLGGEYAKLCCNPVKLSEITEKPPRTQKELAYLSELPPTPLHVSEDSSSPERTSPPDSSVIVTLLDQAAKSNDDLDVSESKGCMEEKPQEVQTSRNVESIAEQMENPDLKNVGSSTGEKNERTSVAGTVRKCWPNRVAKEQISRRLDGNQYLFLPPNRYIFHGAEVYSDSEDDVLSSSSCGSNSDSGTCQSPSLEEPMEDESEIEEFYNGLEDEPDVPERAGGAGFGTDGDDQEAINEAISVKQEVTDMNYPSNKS
The data set can be described thus: SIRT1 deacetylation of Trp 5-mer peptide, OAADPr mass spec assay.
Experimental: (§1) All assays were performed at room temperature in reaction buffer (50 mM HEPES, pH 7.5, 150 mM NaCl, 1 mM DTT, 0.05% BSA). […] To prepare the assays for analysis, 20 μL of reaction volume was mixed in 80 μL of 50:50 acetonitrile:methanol mixture. […] Peak data was integrated using RapidFire Integrator software (Agilent, Santa Clara, Calif.).

The target in data set [5] is T3, SIRT3 (Homo sapiens, UniProt Q9NTG7).
T3 sequence (Q9NTG7 102-399): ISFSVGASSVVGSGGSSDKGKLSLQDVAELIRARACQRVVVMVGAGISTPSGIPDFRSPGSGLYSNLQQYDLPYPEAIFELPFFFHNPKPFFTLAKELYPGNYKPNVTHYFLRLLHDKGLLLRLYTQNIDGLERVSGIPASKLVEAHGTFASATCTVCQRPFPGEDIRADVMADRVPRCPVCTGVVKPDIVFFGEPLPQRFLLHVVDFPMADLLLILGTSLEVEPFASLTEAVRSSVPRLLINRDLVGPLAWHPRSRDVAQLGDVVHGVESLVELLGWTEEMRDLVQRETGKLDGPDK
The data set is described as follows: SIRT3 deacetylation of Trp 5-mer peptide, OAADPr mass spec assay.
Experimental: as §1

The mark [6] stands for this setting: Trp 5-mer peptide and NAD at KM, mean of at least three determinations, read-out: IC50 (μM) SIRT2.
Where [7] appears, read: Trp 5-mer peptide, class symbols, read-out: Trp SIRT2_IC50.
Setting [8] is: Trp SIRT1_IC50, Trp 5-mer peptide, class symbols.
The mark [9] stands for this setting: read-out: IC50 (μM) SIRT1, Trp 5-mer peptide and NAD at KM, mean of at least three determinations.
[10] abbreviates: Trp SIRT3_IC50, Trp 5-mer peptide, class symbols.

Regarding `CCNC(=O)c1cccc(C(=O)NCCN2CCN(c3ncnc4cc(C(N)=O)sc34)CC2)c1` [Compound 11b], in data set [1], the LogD came out at 1.45. Moreover, the solubility at 1 hr in data set [2] amounted to 220 µM (≈ 106 µg/mL). Moreover, the IC50 in data set [3] (setting [6]) was 0.01 µM; in data set [3] (setting [7]), below 1 µM; in data set [4] (setting [8]), below 1 µM; in data set [4] (setting [9]), 0.067 µM.
In data set [1], `CCNC(=O)c1ccc(C(=O)NCCC2CCN(c3ncnc4cc(C(N)=O)sc34)CC2)s1` [Compound 11c] had a LogD of 2.09. The solubility at 1 hr in data set [2] came to 9 µM (≈ 4.38 µg/mL).
In the case of `NC(=O)c1cc2ncnc(N3CCN(CCNC(=O)C4CCCC4)CC3)c2o1` [Compound 98], the IC50 in data set [5] (setting [10]), in data set [3] (setting [7]) and in data set [4] (setting [8]) was below 1 µM in each case.
Consider `CCNC(=O)c1ccc(C(=O)NCCC2CCN(c3ncnc4cc(C(=O)NCC)sc34)CC2)s1` [Compound 194], for which the IC50 in data set [5] (setting [10]), in data set [3] (setting [7]) and in data set [4] (setting [8]) was 1 to 10 µM throughout.
As to `CC(C)(C)C(=O)NCCC1CCN(c2ncnc3ccsc23)CC1` [Compound 42, N-(2-(1-(thieno[3,2-d]pyrimidin-4-yl)piperidin-4-yl)ethyl)pivalamide], the IC50 in data set [5] (IC50 (μM) SIRT3, Trp 5-mer peptide and NAD at KM, mean of at least three determinations) is above 50 µM; in data set [5] (setting [10]), above 10 µM; in data set [3] (setting [6]), above 50 µM; in data set [3] (setting [7]), above 10 µM; in data set [4] (IC50 (μM) SIRT1, Trp 5-mer peptide and NAD at KM, mean of at least three determinations), above 50 µM; in data set [4] (setting [8]) it was above 10 µM. In data set [5] (at the concentrations tested), the “SIRT3 inhibition, in words” value is recorded as “no measurable”. Moreover, the “SIRT2 inhibition, in words” value in data set [3] (at the concentrations tested) is listed as “no measurable”. Further, the “SIRT1 inhibition, in words” value in data set [4] (at the concentrations tested) is recorded as “no measurable”.
Turning to `CC(C)(C)OC(=O)NCCC1CCN(c2ncnc3cc(C(=O)O)sc23)CC1` [Compound 189, 4-(4-(2-((tert-butoxycarbonyl)amino)ethyl)piperidin-1-yl)thieno[3,2-d]pyrimidine-6-carboxylic acid], the IC50 in data set [5] (setting [10]), in data set [3] (setting [7]) and in data set [4] (setting [8]) was above 10 µM in each case.
For `CCNC(=O)c1ccc(C(=O)NCCN2CCN(c3ncnc4cc(C(N)=O)sc34)CC2)s1` [Compound 11d], the LogD in data set [1] is listed as 1.32. In addition, the solubility at 1 hr in data set [2] came out at 65 µM (≈ 31.7 µg/mL). In addition, the IC50 in data set [3] (setting [6]) was 0.005 µM; in data set [3] (setting [7]) it was below 1 µM; in data set [4] (setting [8]), below 1 µM; in data set [4] (setting [9]), 0.031 µM.
Consider `CC(C)(C)C(=O)NCCC1CCN(c2ncc(Br)c3cc(C(N)=O)sc23)CC1` [Compound 112, 4-bromo-7-(4-(2-pivalamidoethyl)piperidin-1-yl)thieno[2,3-c]pyridine-2-carboxamide], for which the IC50 in data set [5] (setting [10]) is above 10 µM; in data set [3] (setting [7]) it was 1 to 10 µM; in data set [4] (setting [8]) it was 1 to 10 µM.
As to `CC(C)(C)C(=O)NCCN1CCN(c2nccc3cc(C(N)=O)sc23)CC1` [Compound 179], the values for the IC50 in data set [5] (setting [10]), in data set [3] (setting [7]) and in data set [4] (setting [8]) were above 10 µM, 1 to 10 µM and above 10 µM, respectively.
For the compound `CC(C)(C)OC(=O)NCCN1CCN(c2ncnc3cc(C(N)=O)oc23)CC1` [Compound 86], the IC50 in data set [5] (setting [10]) was 1 to 10 µM; in data set [3] (setting [7]) it was below 1 µM; in data set [4] (setting [8]), below 1 µM.
With `CC1(C)COC(C2CCN(c3ncnc4cc(C(N)=O)sc34)CC2)OC1` [Compound 78, 4-(4-(5,5-dimethyl-1,3-dioxan-2-yl)piperidin-1-yl)thieno[3,2-d]pyrimidine-6-carboxamide], the IC50 in data set [5] (setting [10]), in data set [3] (setting [7]) and in data set [4] (setting [8]) was 1 to 10 µM in each case.
Consider `NC(=O)c1cc2ncnc(N3CCC(CO)CC3)c2s1` [Compound 51], for which the IC50 was below 1 µM in data set [5] (setting [10]), below 1 µM in data set [3] (setting [7]) and 1 to 10 µM in data set [4] (setting [8]).
`CS(=O)(=O)NCCN1CCN(c2ncnc3cc(C(N)=O)oc23)CC1` [Compound 89]: the IC50 was below 1 µM in data set [5] (setting [10]), below 1 µM in data set [3] (setting [7]) and 1 to 10 µM in data set [4] (setting [8]).
As for `CC(C)(C)C(=O)NCCN1CCN(c2ncnc3cc(C(N)=O)oc23)CC1` [Compound 97], the IC50 in data set [5] (setting [10]), in data set [3] (setting [7]) and in data set [4] (setting [8]) was below 1 µM each time.
On to `Cc1nc(N2CCC(CCO)CC2)c2sc(C(N)=O)cc2n1` [Compound 151], for which the IC50 in data set [5] (setting [10]), in data set [3] (setting [7]) and in data set [4] (setting [8]) was 1 to 10 µM each time.
As for `CC(C)(C)OC(=O)N1CCC(C2CCN(c3ncnc4cc(C(N)=O)oc34)CC2)CC1` [Compound 94, tert-butyl 1′-(6-carbamoylfuro[3,2-d]pyrimidin-4-yl)-[4,4′-bipiperidine]-1-carboxylate], the IC50 in data set [5] (setting [10]) was above 10 µM; in data set [3] (setting [7]), 1 to 10 µM; in data set [4] (setting [8]) it was 1 to 10 µM.
Turning to `Cc1nc(N2CCN(CCN)CC2)c2sc(C(N)=O)cc2n1` [Compound 153], the IC50 in data set [5] (setting [10]) was 1 to 10 µM; in data set [3] (setting [7]) it was 1 to 10 µM; in data set [4] (setting [8]), above 10 µM.
As for `Cc1nc(N2CCN(CCNS(C)(=O)=O)CC2)c2sc(C(N)=O)cc2n1` [Compound 158], the IC50 in data set [5] (setting [10]) is 1 to 10 µM; in data set [3] (setting [7]) it was 1 to 10 µM; in data set [4] (setting [8]), above 10 µM.
For `NCCNC(=O)c1cccc(C(=O)NCCN2CCN(c3ncnc4cc(C(N)=O)sc34)CC2)c1` [Compound 127, N1-(2-aminoethyl)-N3-(2-(4-(6-carbamoylthieno[3,2-d]pyrimidin-4-yl)piperazin-1-yl)ethyl)isophthalamide], the IC50 in data set [5] (setting [10]), in data set [3] (setting [7]) and in data set [4] (setting [8]) was below 1 µM each time.
In the case of `NC(=O)c1cc2ncnc(N3CCC(CCO)CC3)c2s1` [Compound 50], the IC50 in data set [5] (setting [10]), in data set [3] (setting [7]) and in data set [4] (setting [8]) was below 1 µM in each case.
As for `NC(=O)c1cc2ncnc(N3CCC(C(=O)N4CCCC4)CC3)c2s1` [Compound 182], the IC50 was 1 to 10 µM in data set [5] (setting [10]), 1 to 10 µM in data set [3] (setting [7]) and above 10 µM in data set [4] (setting [8]).
`Cc1nc(N2CCC(CCNC(=O)C(C)(C)C)CC2)c2sc(C(N)=O)cc2n1` [Compound 159]: the IC50 is 1 to 10 µM in data set [5] (setting [10]), below 1 µM in data set [3] (setting [7]) and below 1 µM in data set [4] (setting [8]).
Take `COCCC1CCN(c2ncnc3cc(C(N)=O)sc23)CC1` [Compound 49]: the IC50 in data set [5] (setting [10]), in data set [3] (setting [7]) and in data set [4] (setting [8]) was below 1 µM in each case.
As to `CC(C)(C)OC(=O)NCCC1CCN(c2ccnc3cc(C(N)=O)sc23)CC1` [Compound 103, tert-butyl (2-(1-(2-carbamoylthieno[3,2-b]pyridin-7-yl)piperidin-4-yl)ethyl)carbamate], the IC50 in data set [5] (setting [10]), in data set [3] (setting [7]) and in data set [4] (setting [8]) was below 1 µM throughout.
As for `CCNC(=O)c1cc(Br)cc(C(=O)NCCC2CCN(c3ncnc4cc(C(N)=O)sc34)CC2)c1` [Compound 136, 5-bromo-N^1-(2-(1-(6-carbamoylthieno[3,2-d]pyrimidin-4-yl)piperidin-4-yl)ethyl)-N^3-ethylisophthalamide], the IC50 in data set [5] (setting [10]), in data set [3] (setting [7]) and in data set [4] (setting [8]) was below 1 µM throughout.
